Test results from US6943172B2, “Rho-kinase inhibitors” (Bayer Pharmaceuticals Corporation, priority 2002, dated 2005).

CCc1cc(Nc2ccc(Sc3ccncc3)cc2)nc(N)n1 [Example 42, N-(2-amino-6-ethyl-4-pyrimidinyl)-N-[4-(4-pyridinylsulfanyl)phenyl]amine]
melting point: 181 to 186 °C
